Assays:
α2D-adrenoceptors = target: T1, α2D-adrenoceptors (Rattus norvegicus, UniProt P22909); test: inhibition of tritiated idazoxan binding to α2D-adrenoceptors in vitro; design: species or system rat (male Charles River CD, frontal cortical tissue); details: rat frontal cortex; for inhibition at 1 µM: 10^-6 M, [3H]idazoxan, read-out: % displacement at 10^-6 M, α2D; for Ki: [3H]idazoxan 1 nM, 0° C., 75 min
T1 sequence (P22909 1-465): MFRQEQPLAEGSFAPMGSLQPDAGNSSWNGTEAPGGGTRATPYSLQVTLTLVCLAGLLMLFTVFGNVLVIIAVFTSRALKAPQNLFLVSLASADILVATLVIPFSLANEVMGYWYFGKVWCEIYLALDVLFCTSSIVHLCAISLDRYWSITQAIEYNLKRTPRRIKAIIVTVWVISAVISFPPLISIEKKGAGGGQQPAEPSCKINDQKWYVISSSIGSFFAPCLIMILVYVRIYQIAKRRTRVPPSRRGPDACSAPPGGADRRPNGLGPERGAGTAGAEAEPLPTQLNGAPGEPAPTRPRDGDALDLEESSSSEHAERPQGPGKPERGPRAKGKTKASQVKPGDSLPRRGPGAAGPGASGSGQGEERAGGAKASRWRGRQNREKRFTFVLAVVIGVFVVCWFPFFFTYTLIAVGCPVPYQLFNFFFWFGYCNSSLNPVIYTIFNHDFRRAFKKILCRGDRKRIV

D2 dopamine receptors = D2 dopamine receptors (Rattus norvegicus, UniProt P61169); test: inhibition of tritiated (S)-sulpiride binding to D2 dopamine receptors in vitro; design: species or system rat (male Charles River CD, striatal tissue); details: rat striatum, tritiated (S)-sulpiride 1 nM, 4° C., 40 min
5-HT1A receptors = target: T2, 5-HT1A receptors (Rattus norvegicus, UniProt P19327); test: inhibition of [3H]8-OH-DPAT binding to 5-HT1A receptors in vitro; design: species or system rat (male Sprague-Dawley, hippocampal tissue); details: rat hippocampus, [3H]8-OH-DPAT 2 nM, 25° C., 30 min
T2 sequence (P19327 1-422): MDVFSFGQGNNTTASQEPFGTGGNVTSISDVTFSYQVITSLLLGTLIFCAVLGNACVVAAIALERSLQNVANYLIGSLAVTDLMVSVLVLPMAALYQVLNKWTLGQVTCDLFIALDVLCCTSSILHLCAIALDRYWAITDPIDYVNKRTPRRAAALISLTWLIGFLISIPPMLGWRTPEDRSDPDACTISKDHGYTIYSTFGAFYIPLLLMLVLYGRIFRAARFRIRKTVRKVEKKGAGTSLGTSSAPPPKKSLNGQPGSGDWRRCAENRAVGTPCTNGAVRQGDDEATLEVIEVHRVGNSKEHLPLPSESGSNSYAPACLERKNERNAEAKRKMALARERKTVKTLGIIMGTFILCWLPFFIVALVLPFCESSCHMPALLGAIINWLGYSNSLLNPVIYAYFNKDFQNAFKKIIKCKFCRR

α1-adrenoceptors = test: inhibition of 7-methoxy-[3H]prazosin binding to α1-adrenoceptors in vitro; design: species or system rat (male Charles River CD, whole cortical tissue); details: rat whole cortex, 30 min; for Ki: 7-methoxy-[3H]prazosin 0.1 nM, 30° C.
Outline: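 Male CD rat cortical membranes in 50 mM Tris-HCl pH 7.6 were incubated 30 min at 30 °C with 7-methoxy-[3H]prazosin (0.1 nM as added), with 5 μM phentolamine (as added) defining non-specific binding, then filtered and counted. Compounds were tested at 10^-6 M for % displacement or at 10^-11–10^-3 M for IC50, and Ki was derived from IC50, ligand concentration and KD.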

α2A-adrenoceptors = target: T3, α2A-adrenoceptors (Homo sapiens, UniProt P08913); test: inhibition of tritiated RX 821002 binding to α2A-adrenoceptors in vitro; design: species or system human (cerebral cortex post-mortem); details: human cerebral cortex; for inhibition at 1 µM: 10^-6 M, [3H]RX 821002, read-out: % displacement at 10^-6 M, α2A; for Ki: [3H]RX 821002 0.2 nM, 0° C., 75 min
T3 construct: Human cerebral cortex obtained at post-mortem; from tissue; host or cells: human cerebral cortex, post-mortem
T3 sequence (P08913 1-465): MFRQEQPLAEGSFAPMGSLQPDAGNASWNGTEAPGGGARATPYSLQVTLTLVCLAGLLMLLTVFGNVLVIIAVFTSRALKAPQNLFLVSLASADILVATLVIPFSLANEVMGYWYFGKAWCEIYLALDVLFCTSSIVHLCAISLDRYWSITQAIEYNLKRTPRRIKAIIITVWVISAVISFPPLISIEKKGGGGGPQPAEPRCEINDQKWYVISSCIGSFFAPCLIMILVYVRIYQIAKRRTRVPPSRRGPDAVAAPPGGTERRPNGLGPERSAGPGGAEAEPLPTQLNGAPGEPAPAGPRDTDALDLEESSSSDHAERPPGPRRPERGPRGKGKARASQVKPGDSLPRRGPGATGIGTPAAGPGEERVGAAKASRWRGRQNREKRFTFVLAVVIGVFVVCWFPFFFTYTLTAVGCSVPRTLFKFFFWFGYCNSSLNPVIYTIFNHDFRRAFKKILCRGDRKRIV
Protocol: Human cerebral cortex obtained at post-mortem was homogenised in ice-cold 0.25M sucrose (1:30 w/v) and centrifuged at 1,000 g at 4° C. for 12 minutes. The supernatant was stored on ice and the pellet was rehomogenised in 0.25M sucrose (1:15 w/v) and centrifuged at 850 g at 4° C. for 12 minutes. Combined supernatants were diluted with 5 mM Tris-HCl (pH 7.5) containing 5 mM ethylenediamine tetraacetic acid (EDTA), readjusted to pH 7.5 (at 25° C.) with 1M sodium hydroxide to 1:80 w/v, and centrifuged at 11,000 g at 4° C. for 10 minutes. The resulting pellet was resuspended in 50 mM Tris-HCl (pH 7.5) containing 5.68 mM L-ascorbic acid and 0.5 mM EDTA, readjusted to pH 7.5 (at 25° C.) with 1M sodium hydroxide to 1:80 w/v, and centrifuged at 11,000 g for 10 minutes. The pellet was stored at -80° C. On the day of the assay the pellet was thawed, resuspended in 50 mM Tris-HCl (pH 7.5) containing 5.68 mM L-ascorbic acid and 5 mM EDTA to 1:80 w/v and centrifuged at 11,000 g for 10 minutes. The final pellet was resuspended in 50 mM Tris-HCl (pH 7.5) containing 5.68 mM L-ascorbic acid and 5 mM EDTA (equivalent to 25 mg wet weight of tissue/ml).
Aliquots (400 μl; equivalent to 10 mg wet weight of tissue/tube) of this suspension were added to tubes containing the ligand (50 μl; 0.2 nM) and distilled water (50 μl; total binding) or phentolamine (50 μl; 50 μM; non-specific binding) or test compound (50 μl; at a single concentration of 10^-6 M or at 10 concentrations ranging from 10^-11 -10^-3 M). The ligand was tritiated RX 821002 (2-(2-methoxy-1,4-[6,7(n)-^3 H]benzodioxan-2-yl)-2-imidazoline) and the mixture was incubated at 0° C. for 75 minutes before the incubation was terminated by rapid filtration.
The filters were washed with ice-cold Tris-HCl buffer and dried. The filters were punched out into vials, scintillation fluid added and radioactivity determined by liquid scintillation counting. The percentage displacement of specific binding of the tritiated ligand was calculated for the single concentration (10^-6 M) of test compound. Displacement curves were then produced for those compounds which displaced ≥50% of specific binding of the tritiated ligand at 10^-6 M using a range of concentrations of the compound. The concentration which gave 50% inhibition of specific binding (IC50) was obtained from the curve. The inhibition coefficient Ki was then calculated using the formula [formula] in which [ligand] is the concentration of the tritiated ligand used and KD is the equilibrium dissociation constant for the ligand.

D2 dopamine receptors, sequence (P61169 whole entry): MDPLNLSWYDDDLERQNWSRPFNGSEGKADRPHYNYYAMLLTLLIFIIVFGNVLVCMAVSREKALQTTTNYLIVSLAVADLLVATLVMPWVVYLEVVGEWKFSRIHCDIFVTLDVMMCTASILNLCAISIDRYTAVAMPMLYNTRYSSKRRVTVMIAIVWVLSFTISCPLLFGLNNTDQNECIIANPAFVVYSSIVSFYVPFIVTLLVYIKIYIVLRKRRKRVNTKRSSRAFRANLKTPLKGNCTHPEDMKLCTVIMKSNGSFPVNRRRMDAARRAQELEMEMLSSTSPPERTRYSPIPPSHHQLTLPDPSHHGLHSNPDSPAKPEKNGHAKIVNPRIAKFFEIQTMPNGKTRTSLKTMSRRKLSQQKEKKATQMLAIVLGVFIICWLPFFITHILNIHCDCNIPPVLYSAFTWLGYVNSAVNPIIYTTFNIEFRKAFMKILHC

inhibition at 1 µM (α2D-adrenoceptors) [%] | Ki (D2 dopamine receptors) [nM] | Ki (5-HT1A receptors) [nM] | Ki (α1-adrenoceptors) [nM] | inhibition at 1 µM (α2A-adrenoceptors) [%] | Ki (α2D-adrenoceptors) [nM] | Ki (α2A-adrenoceptors) [nM] | % displacement at 10^-6 M, α1 (α1-adrenoceptors; 10^-6 M, 7-methoxy-[3H]prazosin, 1 µM) [%] | Compound
96 | > 500 | 34 | 50 | 100 | – | – | – | Nc1c(CN2CCN(c3cccc4c3OCCO4)CC2)c(C2CCC2)nn1-c1ccccc1 [Example 29, 5-Amino-4-[4-(1,4-benzodioxan-5-yl)piperazin-1-ylmethyl]-3-cyclobutyl-1-phenylpyrazole]
– | 196 | 26 | 401 | – | 307 | 29 | – | Cn1c(N)c(CN2CCN(c3cccc4c3OCCO4)CC2)c(=O)n1-c1ccccc1 [Example 2, 3-amino-4-[4-(1,4-benzodioxan-5-yl)piperazin-1-ylmethyl]-2-methyl-1-phenyl-3-pyrazolin-5-one]
– | 139 | 22 | 45 | 86 | 111 | – | – | C=CCn1c(N)c(CN2CCN(c3cccc4c3OCCO4)CC2)c(=O)n1-c1ccccc1 [Example 6, 2-Allyl-3-amino-4-[4-(1,4-benzodioxan-5-yl)piperazin-1-ylmethyl]-1-phenyl-3-pyrazolin-5-one]
56 | > 500 | > 500 | – | 98 | – | – | 89 | Cc1ccccc1N1CCN(Cc2c(N)n(C)n(-c3ccccc3)c2=O)CC1 [Example 3, 3-Amino-2-methyl-4-[4-(2-methylphenyl)piperazin-1-ylmethyl]-1-phenyl-3-pyrazolin-5-one]
– | 112 | 39 | 186 | 82 | > 500 | – | – | Cn1c(N)c(CN2CCN(c3cccc4ccccc34)CC2)c(=O)n1-c1ccccc1 [Example 4, 3-Amino-2-methyl-4-[4-(1-naphthyl)piperazin-1-ylmethyl]-1-phenyl-3-pyrazolin-5-one]

Continued, compound first:

Compound | inhibition at 1 µM (α2D-adrenoceptors) [%] | Ki (D2 dopamine receptors) [nM] | Ki (5-HT1A receptors) [nM] | Ki (α1-adrenoceptors) [nM] | inhibition at 1 µM (α2A-adrenoceptors) [%] | Ki (α2D-adrenoceptors) [nM] | Ki (α2A-adrenoceptors) [nM] | % displacement at 10^-6 M, α1 (α1-adrenoceptors; 10^-6 M, 7-methoxy-[3H]prazosin, 1 µM) [%]
COc1ccc(-n2nc(C3CC3)c(CN3CCN(c4cccc5c4OCCO5)CC3)c2N)cc1 [Example 17, 5-Amino-4-[4-(1,4-benzodioxan-5-yl)piperazin-1-ylmethyl]-3-cyclopropyl-1-(4-methoxyphenyl)pyrazole] | – | > 500 | 59 | 27 | 86 | 61 | – | –
Nc1c(CN2CCN(c3cccc4c3OCCO4)CC2)c(C2CC2)nn1-c1ccc(Cl)cc1 [Example 20, 5-Amino-4-[4-(1,4-benzodioxan-5-yl)piperazin-1-ylmethyl]-1-(4-chlorophenyl)-3-cyclopropylpyrazole] | – | 445 | 61 | 19 | 89 | 15 | – | –
Nc1c(CN2CCN(c3cccc4c3OCCO4)CC2)c(C2CC2)nn1-c1ccccn1 [Example 16, 5-Amino-4-[4-(1,4-benzodioxan-5-yl)piperazin-1-ylmethyl]-3-cyclopropyl-1-(2-pyridyl)pyrazole] | – | 85 | 4.1 | 35 | 100 | 9.7 | – | –
Cc1ccccc1N1CCN(CC2(C)N=C(c3ccccc3)NC2=O)CC1 (stereo not shown) [Example 43, 4-Methyl-4-[4-(2-methylphenyl)piperazin-1-ylmethyl]-2-phenyl-2-imidazolin-5-one] | – | > 500 | 276 | > 500 | 93 | 33 | – | –
Nc1c(CN2CCN(c3cccc4ccoc34)CC2)c(C2CC2)nn1-c1ccccc1 [Example 27, 5-Amino-4-[4-(7-benzo[b]furanyl)piperazin-1-ylmethyl]-3-cyclopropyl-1-phenylpyrazole] | – | > 500 | 16 | 7.1 | 99 | 4.9 | – | –
CC(C)Oc1ccccc1N1CCN(Cc2c(N)n(C)n(-c3ccccc3)c2=O)CC1 [Example 8, 3-Amino-4-[4-(2-isopropoxyphenyl)piperazin-1-ylmethyl]-2-methyl-1-phenyl-3-pyrazolin-5-one] | – | 22 | 106 | 12 | 100 | 21 | – | –
Cn1nc(C2CC2)c(CN2CCN(c3cccc4c3OCCO4)CC2)c1N [Example 25, 5-Amino-4-[4-(1,4-benzodioxan-5-yl)piperazin-1-ylmethyl]-3-cyclopropyl-1-methylpyrazole] | – | > 500 | 15 | 126 | – | 35 | 14 | –
Cn1nc(C2CCC2)c(CN2CCN(c3cccc4c3OCCO4)CC2)c1N [Example 30, 5-Amino-4-[4-(1,4-benzodioxan-5-yl)piperazin-1-ylmethyl]-3-cyclobutyl-1-methylpyrazole] | 94 | 265 | 18 | 64 | 99 | – | – | –
CC1(CN2CCN(c3cccc4c3OCCO4)CC2)N=C(c2cccnc2)NC1=O (stereo not shown) [Example 40, 4-[4-(1,4-Benzodioxan-5-yl)piperazin-1-ylmethyl]-4-methyl-2-(3-pyridyl)-2-imidazolin-5-one] | – | 315 | 19 | > 500 | 69 | 220 | – | –
